{
  "source": "patent US20220354949A1",
  "about": "“NOVEL COMPOUNDS” (XENIOPRO GmbH, priority 2018, published 2022)",
  "assay_type_in_all_cases": "cell-based",
  "key": {"[1]": {"tested_on": "A-431 cells (human epidermoid squamous cell carcinoma cells)", "experiment": "Proliferation assay (alamarBlue) with A-431 cells", "settings": "for Activity Range (weighted arithmetic mean AVEw of normalized fluorescence intensity, relative to DMSO basis level 1.0): 20 μM; for Activity Range (weighted arithmetic mean of normalized fluorescence intensity, relative to DMSO basis level 1.0): control at 40 μM", "description": "(§1) The antiproliferative activities of compounds falling under formula (Ia), (Ib) and (Ic), respectively, were investigated on cells or cell lines originating from a disorder of the haematopoietic system, including the myeloid cell compartment and the lymphoid cell compartment (T-cells and B-cells), the neuroendocrine system, the cervix, the breast, the ovaries, the lung, the gastrointestinal tract, and the mucosal epithelium, as well as from the skin epithelium and from the muscle. To this end, HL-60 cells, NB-4 cells, HH cells, RPMI-8402 cells, TANOUE cells, TT cells, HeLa cells, MDA-MB-231 cells, FU-OV-1 cells, LOU-NH91 cells, 23132/87 cells, CAL-27 cells, BHY cells, SCC-25 cells, A-431 cells, human primary epidermal keratinocytes (HPEK), and C2C12 cells were seeded into 96-well plates suitable for fluorescence assays (CORNING #3598) at following initial cell numbers: 1000 cells per well for HL-60; 1000 cells per well for NB-4; 5000 cells per well for HH; 5000 cells per well for RPMI-8402; 1500 cells per well for TANOUE; 9000 cells per well for TT; 2000 cells per well for HeLa; 3000 cells per well for MDA-MB-231; 3000 cells per well for FU-OV-1; 4000 cells per well for LOU-NH91; 2000 cells per well for 23132/87; 2000 cells per well for CAL-27; 1500 cells per well for BHY; 1500 cells per well for SCC-25; 700 cells per well for A-431; 1000 cells per well for HPEK; 500 cells per well for C2C12. The cells were treated with compounds at indicated final concentrations (diluted from the 1000× stock-solutions in DMSO to a final DMSO concentration of 0.1% v/v in H2O (Water For Injection, WFI, Fisherscientific #10378939)) or with the empty carrier DMSO at 0.1% v/v as control for 5 days. At day 5 after starting the treatments the cells were subjected to the alamarBlue® Proliferation Assay (Bio-Rad Serotec GmbH, BUF012B) according to the protocol of the manufacturer. The readout was taken with a multi-well plate-reader in the fluorescence mode with applying a filter for excitation at 560 nm (band width 10 nm) and for emission at 590 nm (band width 10 nm). Control treatments for growth inhibition with commercial compounds such as Methotrexate (MTREX) and Resveratrol (RES) were included on every plate. Some of the test compounds of the present invention were obtained and applied as their salts. According cases are indicated in the column “Specification” in Table 55 to Table 92 and by their sum formula in Table 93.\n(§2) The assays were performed in duplicate or more replicates of independent single experiments each containing a six-fold replicate for every condition. For every individual plate, the measured fluorescence intensity values of the conditions with compound treatment were normalized against the corresponding equally weighted arithmetic mean of the fluorescence intensity values of the six DMSO treated control wells in order to obtain the relative values to a baseline level of 1.0.\n(§3) Two independent outlier analyses were performed according to the methods by Peirce and Chauvenet (Ross, Journal of Engineering Technology 2003, 1-12). Outliers confirmed by at least one of the methods were excluded from the calculations but not more than one value out of six per compound within a single experiment. The weighted arithmetic mean (here abbreviated as AVEw) for each compound was calculated from the normalized values over all independent replicates of the single experiments comprising the six replicates each. The corresponding standard deviation for the weighted arithmetic mean was calculated according to the method described by Bronstein et al. (Bronstein, Semendjajew, Musiol, Müihlig, Taschenbuch der Mathematik, 5th edition 2001 (German), publisher: Verlag Harri Deutsch, Frankfurt am Main and Thun) and was combined with the Gauß' error propagation associated with the performed calculation for the normalization. The resulting standard deviation is herein referred to as “combined standard deviation”. […]"}, "[2]": {"tested_on": "23132/87 cells (human gastric adenocarcinoma cells)", "experiment": "Proliferation assay (alamarBlue) with 23132/87 cells", "settings": "for Activity Range (weighted arithmetic mean AVEw of normalized fluorescence intensity, relative to DMSO basis level 1.0): 20 μM; for Activity Range (weighted arithmetic mean of normalized fluorescence intensity, relative to DMSO basis level 1.0): control at 40 μM", "description": "as §1, §2, §3"}, "[3]": {"tested_on": "TANOUE cells (human B cell leukemia cells)", "experiment": "Proliferation assay (alamarBlue) with TANOUE cells", "settings": "for activity at 20 µM: Table 63 (novel compounds), read-out: Activity Range: weighted arithmetic mean (AVEw) of normalized fluorescence intensity relative to DMSO basis level 1.0", "description": "as §1, §2, §3"}, "[4]": {"tested_on": "HeLa cells (human cervical adenocarcinoma cells)", "experiment": "Proliferation assay (alamarBlue) with HeLa cells", "description": "as §1, §2, §3"}, "[5]": {"tested_on": "RPMI-8402 cells (human T cell acute lymphoblastic leukemia cells)", "experiment": "Proliferation assay (alamarBlue) with RPMI-8402 cells", "description": "as §1, §2, §3"}, "[6]": {"settings": "Table 85 (compounds disclosed in PCT/EP2018/054686)"}, "[7]": {"settings": "Table 76 (compounds disclosed in PCT/EP2018/054686)"}, "[8]": {"settings": "Homo sapiens, B-cell, compound at 20 μM"}, "[9]": {"settings": "compound at 20 μM, Table 64 (compounds of PCT/EP2018/054686)"}, "[10]": {"settings": "compound at 20 μM, Table 67 (novel compounds)"}, "[11]": {"settings": "compound at 20 μM, Table 68 (compounds of PCT/EP2018/054686)"}, "[12]": {"settings": "20 μM, relative to DMSO basis level 1.0, Table 61 (novel compounds)"}, "[13]": {"settings": "20 μM, relative to DMSO basis level 1.0, Table 62 (compounds disclosed in PCT/EP2018/054686)"}},
  "data": [
    {"smiles": "Oc1ccc(C=Cc2cc(O)cc(O)c2)cc1", "note": "[RES, Resveratrol]", "values": [
      {"measurement": "Activity Range (weighted arithmetic mean AVEw of normalized fluorescence intensity, relative to DMSO basis level 1.0)", "setting": "[1]; Table 84 (novel compounds)", "value": "0.6 ± 0.0"},
      {"measurement": "Activity Range (weighted arithmetic mean AVEw of normalized fluorescence intensity, relative to DMSO basis level 1.0)", "setting": "[1]; [6]", "value": "0.6 ± 0.0"},
      {"measurement": "Activity Range (weighted arithmetic mean of normalized fluorescence intensity, relative to DMSO basis level 1.0)", "setting": "[1]; Table 84", "value": "0.2 ± 0.0"},
      {"measurement": "Activity Range (weighted arithmetic mean of normalized fluorescence intensity, relative to DMSO basis level 1.0)", "setting": "[1]; Table 85", "value": "0.2 ± 0.0"},
      {"measurement": "Activity Range (weighted arithmetic mean AVEw of normalized fluorescence intensity, relative to DMSO basis level 1.0)", "setting": "[2]; Table 75 (novel compounds)", "value": "0.5 ± 0.1"},
      {"measurement": "Activity Range (weighted arithmetic mean AVEw of normalized fluorescence intensity, relative to DMSO basis level 1.0)", "setting": "[2]; [7]", "value": "0.5 ± 0.1"},
      {"measurement": "Activity Range (weighted arithmetic mean of normalized fluorescence intensity, relative to DMSO basis level 1.0)", "setting": "[2]; Table 75", "value": "0.2 ± 0.0"},
      {"measurement": "Activity Range (weighted arithmetic mean of normalized fluorescence intensity, relative to DMSO basis level 1.0)", "setting": "[2]; Table 76", "value": "0.2 ± 0.0"},
      {"measurement": "activity at 20 µM", "setting": "[3]; [8]", "value": 10, "unit": "%"},
      {"measurement": "activity at 40 µM", "setting": "[3]; Homo sapiens, B-cell, control at 40 μM, Table 63, read-out: Activity Range: weighted arithmetic mean (AVEw) of normalized fluorescence intensity relative to DMSO basis level 1.0", "value": 0, "unit": "%"},
      {"measurement": "Activity Range: weighted arithmetic mean (AVEw) of normalized fluorescence intensity relative to DMSO basis level 1.0", "setting": "[3]; [9]", "value": "0.1 ± 0.0"},
      {"measurement": "Activity Range: weighted arithmetic mean (AVEw) of normalized fluorescence intensity relative to DMSO basis level 1.0", "setting": "[3]; control at 40 μM, Table 64", "value": "0.0 ± 0.0"},
      {"measurement": "Activity Range: weighted arithmetic mean (AVEw) of normalized fluorescence intensity relative to DMSO basis level 1.0", "setting": "[4]; [10]", "value": "0.9 ± 0.0"},
      {"measurement": "Activity Range: weighted arithmetic mean (AVEw) of normalized fluorescence intensity relative to DMSO basis level 1.0", "setting": "[4]; [11]", "value": "0.9 ± 0.0"},
      {"measurement": "Activity Range: weighted arithmetic mean (AVEw) of normalized fluorescence intensity relative to DMSO basis level 1.0", "setting": "[4]; control at 40 μM, Table 67", "value": "0.4 ± 0.1"},
      {"measurement": "Activity Range: weighted arithmetic mean (AVEw) of normalized fluorescence intensity relative to DMSO basis level 1.0", "setting": "[4]; control at 40 μM, Table 68", "value": "0.4 ± 0.1"},
      {"measurement": "Activity Range: weighted arithmetic mean (AVEw) of normalized fluorescence intensity, proliferation assay with RPMI-8402 cells", "setting": "[5]; [12]", "value": "0.6 ± 0.0"},
      {"measurement": "Activity Range: weighted arithmetic mean (AVEw) of normalized fluorescence intensity, proliferation assay with RPMI-8402 cells", "setting": "[5]; [13]", "value": "0.6 ± 0.0"},
      {"measurement": "Activity Range: weighted arithmetic mean (AVEw) of normalized fluorescence intensity, proliferation assay with RPMI-8402 cells", "setting": "[5]; control at 40 μM, relative to DMSO basis level 1.0, Table 61", "value": "0.1 ± 0.0"},
      {"measurement": "Activity Range: weighted arithmetic mean (AVEw) of normalized fluorescence intensity, proliferation assay with RPMI-8402 cells", "setting": "[5]; control at 40 μM, relative to DMSO basis level 1.0, Table 62", "value": "0.1 ± 0.0"}
    ]},
    {"smiles": "CN(Cc1cnc2nc(N)nc(N)c2n1)c1ccc(C(=O)N[C@@H](CCC(=O)O)C(=O)O)cc1", "note": "[MTREX, Methotrexate]", "values": [
      {"measurement": "Activity Range (weighted arithmetic mean AVEw of normalized fluorescence intensity, relative to DMSO basis level 1.0)", "setting": "[1]; Table 84 (novel compounds)", "value": "0.2 ± 0.1"},
      {"measurement": "Activity Range (weighted arithmetic mean AVEw of normalized fluorescence intensity, relative to DMSO basis level 1.0)", "setting": "[1]; [6]", "value": "0.2 ± 0.1"},
      {"measurement": "Activity Range (weighted arithmetic mean AVEw of normalized fluorescence intensity, relative to DMSO basis level 1.0)", "setting": "[2]; Table 75 (novel compounds)", "value": "0.3 ± 0.0"},
      {"measurement": "Activity Range (weighted arithmetic mean AVEw of normalized fluorescence intensity, relative to DMSO basis level 1.0)", "setting": "[2]; [7]", "value": "0.3 ± 0.0"},
      {"measurement": "activity at 20 µM", "setting": "[3]; [8]", "value": 10, "unit": "%"},
      {"measurement": "Activity Range: weighted arithmetic mean (AVEw) of normalized fluorescence intensity relative to DMSO basis level 1.0", "setting": "[3]; [9]", "value": "0.1 ± 0.0"},
      {"measurement": "Activity Range: weighted arithmetic mean (AVEw) of normalized fluorescence intensity relative to DMSO basis level 1.0", "setting": "[4]; [10]", "value": "0.4 ± 0.0"},
      {"measurement": "Activity Range: weighted arithmetic mean (AVEw) of normalized fluorescence intensity relative to DMSO basis level 1.0", "setting": "[4]; [11]", "value": "0.4 ± 0.0"},
      {"measurement": "Activity Range: weighted arithmetic mean (AVEw) of normalized fluorescence intensity, proliferation assay with RPMI-8402 cells", "setting": "[5]; [12]", "value": "0.1 ± 0.0"},
      {"measurement": "Activity Range: weighted arithmetic mean (AVEw) of normalized fluorescence intensity, proliferation assay with RPMI-8402 cells", "setting": "[5]; [13]", "value": "0.1 ± 0.0"}
    ]}
  ]
}
